According to PubChem BioAssay (NCI):
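1) Cells in 96-well plates. 2) Compound, 48 h, 5 concentrations. 3) Linear interpolation between surrounding doses. 4) Unreached endpoint = highest concentration. The concentration for full growth arrest is given as TGI.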

What was measured:
Assay in all cases: NCI anticancer screen, dose series, 48 h
[1] = test system: KM20L2 colon
[2] = test system: SF-268 CNS
[3] = test system: DLD-1 colon
[4] = test system: DMS 114 small cell lung
[5] = test system: HOP-62 NSCLC
[6] = test system: RXF-631 renal
[7] = test system: M19-MEL melanoma
[8] = test system: XF 498 CNS
[9] = test system: DMS 273 small cell lung
[10] = test system: HOP-18 NSCLC
[11] = test system: LXFL 529 NSCLC
[12] = test system: SNB-78 CNS

Structure (SMILES) | TGI [1] [µM] | TGI [2] [µM] | TGI [3] [µM] | TGI [4] [µM] | TGI [5] [µM] | TGI [6] [µM] | TGI [7] [µM] | TGI [8] [µM] | TGI [9] [µM] | TGI [10] [µM] | TGI [11] [µM] | TGI [12] [µM]
O=C1NC(=O)C(CCC(=O)c2ccc3ccccc3c2)C(=O)N1 | > 100 | > 100 | > 100 | > 100 | > 100 | > 100 | > 100 | > 100 | > 100 | > 100 | > 100 | > 100
O=C1c2ccccc2C(=O)c2c1cc(S(=O)(=O)O)c(O)c2O |  | > 100 | > 100 | > 100 | > 100 | > 100 | > 100 | 32.6 |  |  | > 100 | > 100
O=S(=O)(O)C1=C2Sc3ccccc3N=C2c2ccccc2C1 | 34.3 | 27.5 | 32.5 | 22.2 | 35 | 29.5 |  | 31.8 | 29.5 | 25.2 | 24.6 | 34
NC(=S)N1N=C2c3ccccc3CC[C@@H]2[C@@H]1c1ccccc1 | 16.3 | 49.5 | > 86.4 | 8.01 | > 59.1 | > 100 | 47.2 |  | 20.7 | > 100 | 97.6 | > 82
